According to ChEMBL document CHEMBL1201861, “Genomics of Drug Sensitity in Cancer screening data, Wellcome Trust Sanger Institute”:

Assays:
Experiment in all cases: cells
Format in all cases: functional, cell-based, Homo sapiens
[1] = tested on: KP-4; conditions: Homo sapiens, KP-4;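 also: human KP-4 cells, with growth inhibition read out through a cell viability assay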
Description: SANGER: Inhibition of human KP-4 cell growth in a cell viability assay.

[2] = tested on: A 172; conditions: Homo sapiens, A 172;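 also: growth inhibition of A172 cells, measured with a cell viability readout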
Description: SANGER: Inhibition of human A172 cell growth in a cell viability assay.

[3] = tested on: T47D; conditions: Homo sapiens, T47D;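 also: growth inhibition of human T47D cells, measured with a cell viability assay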
Description: SANGER: Inhibition of human T47D cell growth in a cell viability assay.

[4] = tested on: PC-3; conditions: Homo sapiens, PC-3;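 also: cell viability assay measuring growth inhibition of PC-3 cells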
Description: SANGER: Inhibition of human PC-3 cell growth in a cell viability assay.

[5] = tested on: C-33-A; conditions: Homo sapiens, C-33-A;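 also: cell viability assay measuring growth inhibition of C-33-A cells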
Description: SANGER: Inhibition of human C-33-A cell growth in a cell viability assay.

[6] = tested on: OC-314; conditions: Homo sapiens, OC-314
Description: SANGER: Inhibition of human OC-314 cell growth in a cell viability assay.

[7] = tested on: Daoy; conditions: Homo sapiens, Daoy;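 also: daoy cell growth inhibition, read out as cell viability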
Description: SANGER: Inhibition of human Daoy cell growth in a cell viability assay.

[8] = tested on: BEN; conditions: Homo sapiens, BEN;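 also: growth inhibition of the BEN cell line, read out with a cell viability assay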
Description: SANGER: Inhibition of human BEN cell growth in a cell viability assay.

[9] = tested on: SW780; conditions: Homo sapiens, SW780;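 also: growth inhibition of the cells, read out with a cell viability assay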
Description: SANGER: Inhibition of human SW780 cell growth in a cell viability assay.

[10] = tested on: KP-N-YN; conditions: Homo sapiens, KP-N-YN;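 also: growth inhibition of KP-N-YN cells, read out with a cell viability assay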
Description: SANGER: Inhibition of human KP-N-YN cell growth in a cell viability assay.

[11] = tested on: SW1990; conditions: Homo sapiens, SW1990;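 also: cell growth inhibition determined with a viability assay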
Description: SANGER: Inhibition of human SW1990 cell growth in a cell viability assay.

[12] = tested on: S-117; conditions: Homo sapiens, S-117
Description: SANGER: Inhibition of human S-117 cell growth in a cell viability assay.

[13] = tested on: HN; conditions: Homo sapiens, HN
Description: SANGER: Inhibition of human HN cell growth in a cell viability assay.

[14] = tested on: HT-29; conditions: Homo sapiens, HT-29;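 also: growth inhibition of human HT-29 cells, read out by a cell viability assay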
Description: SANGER: Inhibition of human HT-29 cell growth in a cell viability assay.

[15] = tested on: HT-1376; conditions: Homo sapiens, HT-1376
Description: SANGER: Inhibition of human HT-1376 cell growth in a cell viability assay.

[16] = tested on: DOK; conditions: Homo sapiens, DOK;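 also: cell viability assay read-out, values reflect inhibition of cell growth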
Description: SANGER: Inhibition of human DOK cell growth in a cell viability assay.

[17] = tested on: HOP-92; conditions: Homo sapiens, HOP-92;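 also: cell viability readout, with IC50 reflecting inhibition of HOP-92 cell growth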
Description: SANGER: Inhibition of human HOP-92 cell growth in a cell viability assay.

[18] = tested on: HCC1937; conditions: Homo sapiens, HCC1937;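 also: growth inhibition measured with a cell viability read-out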
Description: SANGER: Inhibition of human HCC1937 cell growth in a cell viability assay.

[19] = tested on: D-566MG; conditions: Homo sapiens, D-566MG
[20] = tested on: HCC1569; conditions: Homo sapiens, HCC1569;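 also: growth inhibition of human HCC1569 cells, read out with a cell viability assay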
Description: SANGER: Inhibition of human HCC1569 cell growth in a cell viability assay.

[21] = tested on: SK-MES-1; conditions: Homo sapiens, SK-MES-1;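 also: growth inhibition of human SK-MES-1 cells, read out with a cell viability assay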
Description: SANGER: Inhibition of human SK-MES-1 cell growth in a cell viability assay.

[22] = tested on: SN12C; conditions: Homo sapiens, SN12C;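 also: growth inhibition of human SN12C cells, measured by a cell viability assay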
Description: SANGER: Inhibition of human SN12C cell growth in a cell viability assay.

[23] = tested on: HCC38; conditions: Homo sapiens, HCC38;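 also: cell viability assay on the human HCC38 cell line, with IC50 marking the concentration that inhibits cell growth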
Description: SANGER: Inhibition of human HCC38 cell growth in a cell viability assay.

[24] = tested on: LCLC-97TM1; conditions: Homo sapiens, LCLC-97TM1;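 also: cell viability assay measuring growth inhibition of human LCLC-97TM1 cells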
Description: SANGER: Inhibition of human LCLC-97TM1 cell growth in a cell viability assay.

[25] = tested on: OVCAR-5; conditions: Homo sapiens, OVCAR-5;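 also: growth inhibition of human OVCAR-5 cells, read out with a cell viability assay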
Description: SANGER: Inhibition of human OVCAR-5 cell growth in a cell viability assay.

[26] = tested on: A-431; conditions: Homo sapiens, A-431;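 also: growth inhibition of A-431 cells, determined with a cell viability read-out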
Description: SANGER: Inhibition of human A431 cell growth in a cell viability assay.

[27] = tested on: 23132-87; conditions: Homo sapiens
Description: SANGER: Inhibition of human 23132-87 cell growth in a cell viability assay.

[28] = tested on: NCI-H2029; conditions: Homo sapiens, NCI-H2029;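 also: Read-out is a viability assay on the cultured cells, and IC50 is the concentration that suppresses cell growth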
Description: SANGER: Inhibition of human NCI-H2029 cell growth in a cell viability assay.

[29] = tested on: SJRH30; conditions: Homo sapiens, SJRH30;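 also: growth inhibition of human SJRH30 cells, read out with a cell viability assay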
Description: SANGER: Inhibition of human SJRH30 cell growth in a cell viability assay.

[30] = tested on: SKG-IIIa; conditions: Homo sapiens, SKG-IIIa;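 also: cell growth inhibition, read out with a cell viability assay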
Description: SANGER: Inhibition of human SKG-IIIa cell growth in a cell viability assay.

[31] = tested on: NCI-H2030; conditions: Homo sapiens, NCI-H2030;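 also: growth inhibition of human NCI-H2030 cells, read out by a cell viability assay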
Description: SANGER: Inhibition of human NCI-H2030 cell growth in a cell viability assay.

[32] = tested on: SK-OV-3; conditions: Homo sapiens, SK-OV-3;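 also: growth inhibition of SK-OV-3 human cells, read out with a cell viability assay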
Description: SANGER: Inhibition of human SK-OV-3 cell growth in a cell viability assay.

[33] = tested on: KYSE-510; conditions: Homo sapiens, KYSE-510;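 also: cell viability readout used to measure how strongly growth of the cell line is suppressed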
Description: SANGER: Inhibition of human KYSE-510 cell growth in a cell viability assay.

[34] = tested on: SW1783; conditions: Homo sapiens, SW1783;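 also: cell growth inhibition measured with a viability assay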
Description: SANGER: Inhibition of human SW1783 cell growth in a cell viability assay.

[35] = tested on: UO-31; conditions: Homo sapiens, UO-31;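 also: cell viability assay measuring inhibition of cell growth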
Description: SANGER: Inhibition of human U031 cell growth in a cell viability assay.

[36] = tested on: RD; conditions: Homo sapiens, RD
Description: SANGER: Inhibition of human RD cell growth in a cell viability assay.

[37] = tested on: SW13; conditions: Homo sapiens, SW13;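 also: IC50 is inhibition of SW13 cell growth, read out with a cell viability assay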
Description: SANGER: Inhibition of human SW13 cell growth in a cell viability assay.

[38] = tested on: LN-405; conditions: Homo sapiens, LN-405
Description: SANGER: Inhibition of human LN-405 cell growth in a cell viability assay.

SMILES	IC50 [1]	IC50 [2]	IC50 [3]	IC50 [4]	IC50 [5]	IC50 [6]	IC50 [7]	IC50 [8]	IC50 [9]	IC50 [13]	IC50 [14]	IC50 [15]	IC50 [16]	IC50 [18]	IC50 [19]	IC50 [21]	IC50 [24]	IC50 [25]	IC50 [26]	IC50 [27]	also measured
Nc1cccc2c1CN(C1CCC(=O)NC1=O)C2=O (stereo not drawn) [LENALIDOMIDE]	> 5 µM	> 5 µM	> 5 µM	> 5 µM	> 5 µM	> 5 µM	> 5 µM	> 5 µM	> 5 µM	> 5 µM	> 5 µM	> 5 µM	> 5 µM	> 5 µM	> 5 µM	> 5 µM	> 5 µM	> 5 µM	> 5 µM	> 5 µM	IC50 [10]: > 5 µM; IC50 [11]: > 5 µM; IC50 [12]: > 5 µM; IC50 [17]: > 5 µM; IC50 [20]: > 5 µM; IC50 [22]: > 5 µM; IC50 [23]: > 5 µM; IC50 [28]: > 5 µM; IC50 [29]: > 5 µM; IC50 [30]: > 5 µM; IC50 [31]: > 5 µM; IC50 [32]: > 5 µM; IC50 [33]: > 5 µM; IC50 [34]: > 5 µM; IC50 [35]: > 5 µM; IC50 [36]: > 5 µM; IC50 [37]: > 5 µM; IC50 [38]: > 5 µM
CN(C)C(=N)NC(=N)N [METFORMIN]	7050 µM	17500 µM	19900 µM	> 20000 µM	9400 µM	> 20000 µM	> 20000 µM	15400 µM	12400 µM	> 20000 µM	> 20000 µM	10400 µM	4250 µM	> 20000 µM	10800 µM	> 20000 µM	3170 µM	> 20000 µM	> 20000 µM	11200 µM	IC50 [28]: 14800 µM; IC50 [30]: > 20000 µM; IC50 [33]: > 20000 µM; IC50 [34]: > 20000 µM; IC50 [35]: > 20000 µM; IC50 [36]: > 20000 µM; IC50 [37]: 10000 µM
Cc1cn(-c2cc(NC(=O)c3ccc(C)c(Nc4nccc(-c5cccnc5)n4)c3)cc(C(F)(F)F)c2)cn1 [NILOTINIB]	> 2 µM	> 2 µM	> 2 µM	> 2 µM	> 2 µM	> 2 µM	> 2 µM	> 2 µM	> 2 µM	> 2 µM	> 2 µM	> 2 µM	> 2 µM	> 2 µM	> 2 µM	> 2 µM	> 2 µM	> 2 µM	> 2 µM	> 2 µM	IC50 [10]: > 2 µM; IC50 [11]: > 2 µM; IC50 [12]: > 2 µM; IC50 [17]: > 2 µM; IC50 [20]: > 2 µM; IC50 [22]: > 2 µM; IC50 [23]: > 2 µM; IC50 [28]: > 2 µM; IC50 [29]: > 2 µM; IC50 [30]: > 2 µM; IC50 [31]: > 2 µM; IC50 [32]: > 2 µM; IC50 [33]: > 2 µM; IC50 [34]: > 2 µM; IC50 [35]: > 2 µM; IC50 [36]: > 2 µM; IC50 [37]: > 2 µM; IC50 [38]: > 2 µM
